Laboratory results from publication PMC4521712, “Enhanced Bacterial α(2,6)-Sialyltransferase Reaction through an Inhibition of Its Inherent Sialidase Activity by Dephosphorylation of Cytidine-5'-Monophosphate” (PLoS ONE, 2015).

How the values were obtained:
Assay type in all cases: biochemical
Pd-ST [1] = molecular target: T1, Pd-ST (Photobacterium damselae, UniProt O66375); experiment: HPLC of AA-lactose released from AA-6'-sialyllactose (sialidase activity); details: 1 mM, 50 μM AA-6'-sialyllactose, 100 mM sodium phosphate pH 6.0, 37°C, 2 h
T1 construct: gene bst; residues 16-497 with catalytic domain, pColdII N-terminal His-tag (kept), codon-optimised gene, E. coli BL21, Ni-NTA
T1 sequence (O66375 16-497): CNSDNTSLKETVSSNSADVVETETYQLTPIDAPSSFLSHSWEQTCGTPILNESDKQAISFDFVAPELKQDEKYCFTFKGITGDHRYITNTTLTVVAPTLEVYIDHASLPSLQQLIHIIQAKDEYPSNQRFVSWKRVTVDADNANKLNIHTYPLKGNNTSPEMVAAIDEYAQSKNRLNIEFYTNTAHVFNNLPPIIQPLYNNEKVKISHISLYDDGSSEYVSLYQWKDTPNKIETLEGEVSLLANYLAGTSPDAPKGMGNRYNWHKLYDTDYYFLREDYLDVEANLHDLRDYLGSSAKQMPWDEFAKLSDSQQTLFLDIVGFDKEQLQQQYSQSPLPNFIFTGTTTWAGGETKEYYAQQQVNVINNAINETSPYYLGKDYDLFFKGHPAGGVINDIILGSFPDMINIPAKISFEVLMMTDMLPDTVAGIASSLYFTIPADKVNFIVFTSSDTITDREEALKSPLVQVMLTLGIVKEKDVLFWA

P224-ST [2] = molecular target: T2, P224-ST (Photobacterium sp. JT-ISH-224, UniProt A8QYL1); experiment: as above; details: 1 mM, 50 μM AA-6'-sialyllactose, 100 mM sodium phosphate pH 6.0, 37°C, 2 h
T2 construct: gene pst6-224; residues 18-514 with catalytic domain, pColdII N-terminal His-tag (kept), codon-optimised gene, E. coli BL21, Ni-NTA
T2 sequence (A8QYL1 18-514): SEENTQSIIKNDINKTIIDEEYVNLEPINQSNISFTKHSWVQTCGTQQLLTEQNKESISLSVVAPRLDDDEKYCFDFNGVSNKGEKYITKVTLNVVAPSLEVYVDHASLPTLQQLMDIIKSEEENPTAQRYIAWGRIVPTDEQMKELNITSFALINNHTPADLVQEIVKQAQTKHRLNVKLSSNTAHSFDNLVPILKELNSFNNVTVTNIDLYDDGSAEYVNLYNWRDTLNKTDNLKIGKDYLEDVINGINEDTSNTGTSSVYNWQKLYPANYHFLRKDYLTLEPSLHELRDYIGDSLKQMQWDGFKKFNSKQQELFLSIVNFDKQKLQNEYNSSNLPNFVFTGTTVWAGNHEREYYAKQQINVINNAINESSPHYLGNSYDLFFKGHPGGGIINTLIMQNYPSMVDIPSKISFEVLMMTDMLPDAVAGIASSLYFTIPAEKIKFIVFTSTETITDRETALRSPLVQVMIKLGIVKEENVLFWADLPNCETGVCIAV

P145-ST [3] = molecular target: T3, P145-ST (Photobacterium leiognathi, UniProt A8R0T5); experiment: as above; details: inhibitor of sialidase activity, 0.01-10 mM; 50 μM AA-6'-sialyllactose, 100 mM sodium phosphate pH 6.0, 37°C, 2 h
T3 construct: gene plst6; residues 16-497 with catalytic domain, pColdII N-terminal His-tag (kept), codon-optimised gene, E. coli BL21, Ni-NTA
T3 sequence (A8R0T5 16-497): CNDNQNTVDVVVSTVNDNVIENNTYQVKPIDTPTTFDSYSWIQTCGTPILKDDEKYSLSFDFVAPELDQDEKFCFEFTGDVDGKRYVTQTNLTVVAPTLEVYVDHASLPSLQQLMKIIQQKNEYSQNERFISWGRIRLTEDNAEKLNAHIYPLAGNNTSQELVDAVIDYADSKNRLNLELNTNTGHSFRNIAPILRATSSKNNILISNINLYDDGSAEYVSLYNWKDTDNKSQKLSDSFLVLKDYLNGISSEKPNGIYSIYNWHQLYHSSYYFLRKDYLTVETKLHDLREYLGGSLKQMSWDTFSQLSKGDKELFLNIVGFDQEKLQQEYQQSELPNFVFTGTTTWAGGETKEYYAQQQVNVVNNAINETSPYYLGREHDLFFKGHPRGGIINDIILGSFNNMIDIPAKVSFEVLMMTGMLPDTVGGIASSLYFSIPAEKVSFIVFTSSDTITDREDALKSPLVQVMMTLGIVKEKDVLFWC

P224-ST [4] = molecular target: T2, P224-ST; experiment: HPLC of sialylated AA-glycans, Michaelis-Menten fit; details: sialyltransferase; 0.5 mM CMP-Neu5Ac, 100 mM Tris-HCl pH 8.0, 30°C, 5 min; labelled compound; read-out: apparent Km
From the text: HPLC of sialylated AA-glycans, Michaelis-Menten fit on P224-ST | The apparent Km values of Pd-, P224-, and P145-ST for G2-AA substrate are […]

Pd-ST [5] = molecular target: T1, Pd-ST; experiment: as above; details: sialyltransferase; 0.5 mM CMP-Neu5Ac, 100 mM Tris-HCl pH 8.0, 30°C, 5 min; labelled compound; read-out: apparent Km
P145-ST [6] = molecular target: T3, P145-ST; experiment: as above; details: sialyltransferase; 0.5 mM CMP-Neu5Ac, 100 mM Tris-HCl pH 8.0, 30°C, 5 min; labelled compound; read-out: apparent Km
From the text: HPLC of sialylated AA-glycans, Michaelis-Menten fit on P145-ST | The apparent Km values of Pd-, P224-, and P145-ST for G2-AA substrate are […]

P145-ST [7] = molecular target: T3, P145-ST; experiment: HPLC of AA-lactose released from AA-6'-sialyllactose (sialidase activity); details: 50 μM AA-6'-sialyllactose, 100 mM sodium phosphate pH 6.0, 37°C, 2 h
[8] = inhibitor of sialidase activity
[9] = activator of sialidase activity

Row | SMILES | HPLC of AA-lactose released from AA-6'-sialyllactose (sialidase activity) (Pd-ST [1]; [8]) | HPLC of AA-lactose released from AA-6'-sialyllactose (sialidase activity) (P224-ST [2]; [8]) | HPLC of AA-lactose released from AA-6'-sialyllactose (sialidase activity) (P145-ST [3]) | other results
1 | Nc1ccn([C@@H]2O[C@H](CO)[C@@H](O)[C@H]2O)c(=O)n1 [cytidine] | all other tested nucleotides including CDP, CTP, and cytidine showed decreasing effects | all other tested nucleotides including CDP, CTP, and cytidine showed decreasing effects | cytidine appeared to inhibit sialidase activity in an on-and-off mode | –
2 | CC(=O)N[C@H]1[C@H](O[C@@H]([C@H](O)[C@H](CNc2ccccc2C(=O)O)NC(C)=O)[C@H](O)CO)O[C@H](CO)[C@@H](O[C@@H]2O[C@H](CO[C@H]3O[C@H](CO)[C@@H](O)[C@H](O)[C@@H]3O[C@@H]3O[C@H](CO)[C@@H](O[C@@H]4O[C@H](CO)[C@H](O)[C@H](O)[C@H]4O)[C@H](O)[C@H]3NC(C)=O)[C@@H](O)[C@H](O[C@H]3O[C@H](CO)[C@@H](O)[C@H](O)[C@@H]3O[C@@H]3O[C@H](CO)[C@@H](O[C@@H]4O[C@H](CO)[C@H](O)[C@H](O)[C@H]4O)[C@H](O)[C@H]3NC(C)=O)[C@@H]2O)[C@@H]1O [G2-AA, AA-labeled G2 glycan] | – | – | – | Km (P224-ST [4]): 39.2 ± 4.7 µM; Km (Pd-ST [5]): 36.1 ± 4.9 µM; Km (P145-ST [6]): 27.8 ± 5.8 µM
3 | Nc1ccn([C@@H]2O[C@H](COP(=O)(O)OP(=O)(O)OP(=O)(O)O)[C@@H](O)[C@H]2O)c(=O)n1 [CTP] | all other tested nucleotides including CDP, CTP, and cytidine showed decreasing effects | all other tested nucleotides including CDP, CTP, and cytidine showed decreasing effects | – | % lactose formed at 10 mM (P145-ST [7]; [8]): 2%
4 | Nc1ccn([C@@H]2O[C@H](COP(=O)(O)O)[C@@H](O)[C@H]2O)c(=O)n1 [CMP] | – | – | – | HPLC of AA-lactose released from AA-6'-sialyllactose (sialidase activity) (Pd-ST [1]; [9]): the addition of CMP increased the sialidase activity; HPLC of AA-lactose released from AA-6'-sialyllactose (sialidase activity) (P224-ST [2]; [9]): the addition of CMP increased the sialidase activity; % lactose formed at 10 mM (P145-ST [7]; [9]): 43%
5 | Nc1ccn([C@@H]2O[C@H](COP(=O)(O)OP(=O)(O)O)[C@@H](O)[C@H]2O)c(=O)n1 [CDP] | all other tested nucleotides including CDP, CTP, and cytidine showed decreasing effects | all other tested nucleotides including CDP, CTP, and cytidine showed decreasing effects | CTP and CDP inhibited sialidase activity in a concentration-dependent manner | –
